From the NIST ThermoML archive (doi:10.1021/je900596d)
± gives the expanded uncertainty stated by the source.

Conditions: 362.9 K, Vibrating tube method

FC(F)=C(F)C(F)(F)F [hexafluoropropene]
Conditions | mass density [kg/m3]
986.7 kPa, Fluid (supercritical or subcritical phases) | 55.35 ± 0.08
1010.4 kPa, Fluid (supercritical or subcritical phases) | 56.58 ± 0.09
1044 kPa, Fluid (supercritical or subcritical phases) | 59.01 ± 0.09
1060.4 kPa, Fluid (supercritical or subcritical phases) | 59.9 ± 0.09
1076.4 kPa, Fluid (supercritical or subcritical phases) | 61.11 ± 0.09
1097.9 kPa, Fluid (supercritical or subcritical phases) | 62.31 ± 0.09
1119.7 kPa, Fluid (supercritical or subcritical phases) | 63.86 ± 0.1
1141.5 kPa, Fluid (supercritical or subcritical phases) | 65.33 ± 0.1
1162.5 kPa, Fluid (supercritical or subcritical phases) | 66.89 ± 0.1
1202.5 kPa, Fluid (supercritical or subcritical phases) | 69.4 ± 0.1
1221.4 kPa, Fluid (supercritical or subcritical phases) | 70.92 ± 0.1
1239.6 kPa, Fluid (supercritical or subcritical phases) | 71.99 ± 0.11
1257.3 kPa, Fluid (supercritical or subcritical phases) | 73.4 ± 0.11
1274.3 kPa, Fluid (supercritical or subcritical phases) | 74.42 ± 0.11
1293.3 kPa, Fluid (supercritical or subcritical phases) | 76 ± 0.11
1312.3 kPa, Fluid (supercritical or subcritical phases) | 77.04 ± 0.11
1331.5 kPa, Fluid (supercritical or subcritical phases) | 78.67 ± 0.12
1349 kPa, Fluid (supercritical or subcritical phases) | 79.84 ± 0.12
1367.1 kPa, Fluid (supercritical or subcritical phases) | 81.15 ± 0.12
1388 kPa, Fluid (supercritical or subcritical phases) | 82.53 ± 0.12
1408.2 kPa, Fluid (supercritical or subcritical phases) | 83.98 ± 0.12
1429.7 kPa, Fluid (supercritical or subcritical phases) | 85.75 ± 0.13
1447.9 kPa, Fluid (supercritical or subcritical phases) | 86.99 ± 0.13
1484.9 kPa, Fluid (supercritical or subcritical phases) | 89.9 ± 0.13
1503.2 kPa, Fluid (supercritical or subcritical phases) | 91.22 ± 0.13
1521.3 kPa, Fluid (supercritical or subcritical phases) | 92.61 ± 0.14
1544.9 kPa, Fluid (supercritical or subcritical phases) | 94.44 ± 0.14
1567.8 kPa, Fluid (supercritical or subcritical phases) | 96.26 ± 0.14
1613.4 kPa, Fluid (supercritical or subcritical phases) | 99.81 ± 0.15
1634.9 kPa, Fluid (supercritical or subcritical phases) | 101.65 ± 0.15
1655.8 kPa, Fluid (supercritical or subcritical phases) | 103.37 ± 0.15
1676.7 kPa, Fluid (supercritical or subcritical phases) | 104.81 ± 0.15
1696.6 kPa, Fluid (supercritical or subcritical phases) | 106.47 ± 0.16
1716 kPa, Fluid (supercritical or subcritical phases) | 108.07 ± 0.16
1734.8 kPa, Fluid (supercritical or subcritical phases) | 109.59 ± 0.17
1753 kPa, Fluid (supercritical or subcritical phases) | 111.4 ± 0.17
1771.1 kPa, Fluid (supercritical or subcritical phases) | 112.78 ± 0.16
1788.6 kPa, Fluid (supercritical or subcritical phases) | 114.27 ± 0.17
1805.4 kPa, Fluid (supercritical or subcritical phases) | 115.72 ± 0.17
1838.2 kPa, Fluid (supercritical or subcritical phases) | 118.54 ± 0.18
1868.9 kPa, Fluid (supercritical or subcritical phases) | 121.28 ± 0.18
1898.3 kPa, Fluid (supercritical or subcritical phases) | 124.13 ± 0.19
1923.7 kPa, Fluid (supercritical or subcritical phases) | 126.25 ± 0.19
1953.6 kPa, Fluid (supercritical or subcritical phases) | 129.06 ± 0.2
1971.3 kPa, Fluid (supercritical or subcritical phases) | 130.89 ± 0.2
1988.2 kPa, Fluid (supercritical or subcritical phases) | 132.28 ± 0.2
2005 kPa, Fluid (supercritical or subcritical phases) | 133.86 ± 0.21
2021.3 kPa, Fluid (supercritical or subcritical phases) | 135.65 ± 0.21
2037.3 kPa, Fluid (supercritical or subcritical phases) | 137.17 ± 0.21
2066.9 kPa, Fluid (supercritical or subcritical phases) | 140.08 ± 0.21
2099 kPa, Fluid (supercritical or subcritical phases) | 143.21 ± 0.22
2115.6 kPa, Fluid (supercritical or subcritical phases) | 144.99 ± 0.22
2133.5 kPa, Fluid (supercritical or subcritical phases) | 146.69 ± 0.23
2152 kPa, Fluid (supercritical or subcritical phases) | 148.88 ± 0.24
2207.8 kPa, Fluid (supercritical or subcritical phases) | 154.82 ± 0.24
2239 kPa, Fluid (supercritical or subcritical phases) | 158.23 ± 0.25
2255.7 kPa, Fluid (supercritical or subcritical phases) | 160.15 ± 0.25
2279.2 kPa, Fluid (supercritical or subcritical phases) | 162.54 ± 0.26
2296 kPa, Fluid (supercritical or subcritical phases) | 164.49 ± 0.26
2320.6 kPa, Fluid (supercritical or subcritical phases) | 167.17 ± 0.27
2341.1 kPa, Fluid (supercritical or subcritical phases) | 169.73 ± 0.28
2363.6 kPa, Fluid (supercritical or subcritical phases) | 172.35 ± 0.29
2382.4 kPa, Fluid (supercritical or subcritical phases) | 174.89 ± 0.3
2399.2 kPa, Fluid (supercritical or subcritical phases) | 176.97 ± 0.29
2416.1 kPa, Fluid (supercritical or subcritical phases) | 178.92 ± 0.3
2454.2 kPa, Fluid (supercritical or subcritical phases) | 183.72 ± 0.31
2471.2 kPa, Fluid (supercritical or subcritical phases) | 185.86 ± 0.32
2493.7 kPa, Fluid (supercritical or subcritical phases) | 188.92 ± 0.33
2510.8 kPa, Fluid (supercritical or subcritical phases) | 191.35 ± 0.33
2532.7 kPa, Fluid (supercritical or subcritical phases) | 194.2 ± 0.34
2568.3 kPa, Fluid (supercritical or subcritical phases) | 199.28 ± 0.36
2584.5 kPa, Fluid (supercritical or subcritical phases) | 201.68 ± 0.36
2637.6 kPa, Fluid (supercritical or subcritical phases) | 209.57 ± 0.38
2655.8 kPa, Fluid (supercritical or subcritical phases) | 212.2 ± 0.39
2673.6 kPa, Fluid (supercritical or subcritical phases) | 215.1 ± 0.41
2690.3 kPa, Fluid (supercritical or subcritical phases) | 217.71 ± 0.42
2706.4 kPa, Fluid (supercritical or subcritical phases) | 220.44 ± 0.42
2736.2 kPa, Fluid (supercritical or subcritical phases) | 225.31 ± 0.44
2764.5 kPa, Fluid (supercritical or subcritical phases) | 230.31 ± 0.46
2781.5 kPa, Fluid (supercritical or subcritical phases) | 233.26 ± 0.48
2809.5 kPa, Fluid (supercritical or subcritical phases) | 238.5 ± 0.5
2870.6 kPa, Fluid (supercritical or subcritical phases) | 250.29 ± 0.55
2897.9 kPa, Fluid (supercritical or subcritical phases) | 256.08 ± 0.6
2916.5 kPa, Fluid (supercritical or subcritical phases) | 260.21 ± 0.61
2944.7 kPa, Fluid (supercritical or subcritical phases) | 266.58 ± 0.65
2978.3 kPa, Fluid (supercritical or subcritical phases) | 274.33 ± 0.69
2997 kPa, Fluid (supercritical or subcritical phases) | 278.8 ± 0.74
3015.2 kPa, Fluid (supercritical or subcritical phases) | 283.34 ± 0.78
3032.8 kPa, Fluid (supercritical or subcritical phases) | 287.81 ± 0.83
3049.7 kPa, Fluid (supercritical or subcritical phases) | 292.35 ± 0.9
3066.4 kPa, Fluid (supercritical or subcritical phases) | 297.12 ± 1
3119.6 kPa, Fluid (supercritical or subcritical phases) | 313.41 ± 1.1
3140.3 kPa, Fluid (supercritical or subcritical phases) | 320.42 ± 1.1
3159.2 kPa, Fluid (supercritical or subcritical phases) | 327.22 ± 1.2
3176.3 kPa, Fluid (supercritical or subcritical phases) | 333.78 ± 1.2
3193.5 kPa, Fluid (supercritical or subcritical phases) | 340.76 ± 1.3
3209.9 kPa, Fluid (supercritical or subcritical phases) | 347.93 ± 1.4
3229.3 kPa, Fluid (supercritical or subcritical phases) | 357.01 ± 1.5
3246.9 kPa, Fluid (supercritical or subcritical phases) | 366.07 ± 1.6
3263.4 kPa, Fluid (supercritical or subcritical phases) | 375.24 ± 1.8
3285.9 kPa, Fluid (supercritical or subcritical phases) | 389.23 ± 2
3305.8 kPa, Fluid (supercritical or subcritical phases) | 403.5 ± 2.5
3341.5 kPa, Fluid (supercritical or subcritical phases) | 436.07 ± 3
3360.9 kPa, Fluid (supercritical or subcritical phases) | 459.89 ± 8
3377.9 kPa, Fluid (supercritical or subcritical phases) | 530.57 ± 10
3394.4 kPa, Fluid (supercritical or subcritical phases) | 567.77 ± 6.8
3410.4 kPa, Fluid (supercritical or subcritical phases) | 601.27 ± 6.3
3426.7 kPa, Fluid (supercritical or subcritical phases) | 633.69 ± 5
3445.3 kPa, Fluid (supercritical or subcritical phases) | 659.79 ± 4
3463.4 kPa, Fluid (supercritical or subcritical phases) | 682.18 ± 3.6
3480.7 kPa, Fluid (supercritical or subcritical phases) | 701.66 ± 3
3498.4 kPa, Fluid (supercritical or subcritical phases) | 717.14 ± 2.6
4505.3 kPa, Fluid (supercritical or subcritical phases) | 920.24 ± 0.99
4525.6 kPa, Fluid (supercritical or subcritical phases) | 921.9 ± 0.99
4552.8 kPa, Fluid (supercritical or subcritical phases) | 924.12 ± 1
4579.3 kPa, Fluid (supercritical or subcritical phases) | 926.3 ± 1
4626.5 kPa, Fluid (supercritical or subcritical phases) | 929.99 ± 1
4646.5 kPa, Fluid (supercritical or subcritical phases) | 931.47 ± 1
4666.9 kPa, Fluid (supercritical or subcritical phases) | 932.99 ± 1
4687.6 kPa, Fluid (supercritical or subcritical phases) | 934.6 ± 1
4707.8 kPa, Fluid (supercritical or subcritical phases) | 936.1 ± 1
4762.6 kPa, Liquid | 939.84 ± 1.1
4784.8 kPa, Liquid | 941.44 ± 1.1
4810.7 kPa, Liquid | 943.09 ± 1.1
4836.8 kPa, Liquid | 944.88 ± 1.1
4878.2 kPa, Liquid | 947.51 ± 1.1
4899.5 kPa, Liquid | 948.95 ± 1.1
4921.9 kPa, Liquid | 950.41 ± 1.1
4942.5 kPa, Liquid | 951.63 ± 1.1
4962.8 kPa, Liquid | 952.76 ± 1.1
4983.6 kPa, Liquid | 954.01 ± 1.1
5010.6 kPa, Liquid | 955.79 ± 1.1
5047.3 kPa, Liquid | 957.89 ± 1.1
